By melting point is commonly meant the temperature, or range, at which the solid turns liquid. One may read the Ki as the dissociation constant of the complex between target and ligand, obtained from inhibition or displacement. The low end stands for higher affinity, the high end for lower affinity. Broadly, the EC50 is the concentration at which the effect is half-maximal.

Counter-ions that a name gives are not always drawn. Bounds are passed on as bounds.

This is an account of results in patent publication US7226925B2, “Compounds, their use and preparation” (Biovitrum AB, priority 2002, dated 2007).

The target of data set [1] is T1, human 5-HT2A receptor (Homo sapiens, UniProt P28223).
T1 construct: expressed in transfected cells; host or cells: CHO cells
T1 sequence (P28223 whole entry): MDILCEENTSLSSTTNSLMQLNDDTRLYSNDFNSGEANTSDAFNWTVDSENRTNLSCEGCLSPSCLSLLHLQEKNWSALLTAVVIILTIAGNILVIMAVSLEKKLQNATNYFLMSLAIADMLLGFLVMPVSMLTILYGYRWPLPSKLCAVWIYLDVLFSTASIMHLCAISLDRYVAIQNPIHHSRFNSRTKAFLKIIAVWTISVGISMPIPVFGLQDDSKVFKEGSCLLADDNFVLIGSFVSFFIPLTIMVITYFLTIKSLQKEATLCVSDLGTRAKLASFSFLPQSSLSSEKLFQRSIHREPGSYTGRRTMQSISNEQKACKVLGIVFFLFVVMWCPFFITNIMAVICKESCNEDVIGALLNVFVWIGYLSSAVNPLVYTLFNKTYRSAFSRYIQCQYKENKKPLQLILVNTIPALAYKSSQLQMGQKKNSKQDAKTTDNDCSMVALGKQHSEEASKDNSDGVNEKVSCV
In words: Affinity assay, displacement of 3H-LSD, CHO cell line. The data set is classed as binding. To be noted: 3H-LSD radioligand, CHO cells. How it is done:
(§1) The binding affinities of the compounds for the human 5-HT2A and 5-HT2B receptors in CHO cell lines were determined using ^3H-labelled lysergic acid diethyl amide (LSD) and 5-HT, respectively, as radioligands. The binding affinities of the compounds for the human 5-HT1A and 5-HT1B receptors in CHO cell lines were determined similarly using ^3H-labelled 8-hydroxy-2-(di-n-propylamino)tetralin (8-OH-DPAT) and 5-HT, respectively, as radioligands.

Data set [2] addresses T2, human 5-HT2C receptor (Homo sapiens, UniProt P28335).
T2 construct: expressed in transfected cells
T2 sequence (P28335 33-458): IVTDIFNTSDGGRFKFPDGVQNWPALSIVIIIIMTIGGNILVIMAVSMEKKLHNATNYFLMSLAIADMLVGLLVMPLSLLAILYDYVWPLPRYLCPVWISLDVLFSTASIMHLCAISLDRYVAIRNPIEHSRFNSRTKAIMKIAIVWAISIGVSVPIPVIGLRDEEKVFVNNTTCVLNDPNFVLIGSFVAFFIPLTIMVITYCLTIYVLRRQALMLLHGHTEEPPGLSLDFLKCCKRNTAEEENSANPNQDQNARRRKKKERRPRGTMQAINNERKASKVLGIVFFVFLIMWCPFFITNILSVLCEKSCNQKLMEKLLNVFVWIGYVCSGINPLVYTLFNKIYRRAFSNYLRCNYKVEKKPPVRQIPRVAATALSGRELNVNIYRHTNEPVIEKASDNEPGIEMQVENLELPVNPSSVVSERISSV
In words: Affinity assay, displacement of 3H-5-HT, membranes of transfected HEK293 cells, Scintillation Proximity Assay. It is filed as binding. As to conditions: 3H-5-HT radioligand.
Experimental: The receptor affinity of compounds in the Examples was determined in competition experiments, where the ability of each compound in serial dilution to displace ^3H-labelled 5-HT, bound to membranes prepared from a transfected HEK293 cell line stably expressing the human 5-HT2C receptor protein, was monitored by Scintillation Proximity Assay technology. Non-specific binding was defined using 5 μM mianserin.

Data set [3] has as its target T2, human 5-HT2C receptor. In words: In vitro functional assay, intracellular calcium mobilisation in transfected HEK293 cells (FLUO-3). It is filed as cell-based. To be noted: for EC50: calcium mobilisation, HEK293 cells; for Efficacy 5-HT2C: maximum response at 1 μM relative to maximum response of 5-HT at 1 μM. A general note: Calcium flux is commonly read through the fluorescence of an indicator in the cells.

The target of a further data set is T3, human 5-HT1B receptor (Homo sapiens, UniProt P28222).
T3 construct: expressed in transfected cells; host or cells: CHO cell line
T3 sequence (P28222 whole entry): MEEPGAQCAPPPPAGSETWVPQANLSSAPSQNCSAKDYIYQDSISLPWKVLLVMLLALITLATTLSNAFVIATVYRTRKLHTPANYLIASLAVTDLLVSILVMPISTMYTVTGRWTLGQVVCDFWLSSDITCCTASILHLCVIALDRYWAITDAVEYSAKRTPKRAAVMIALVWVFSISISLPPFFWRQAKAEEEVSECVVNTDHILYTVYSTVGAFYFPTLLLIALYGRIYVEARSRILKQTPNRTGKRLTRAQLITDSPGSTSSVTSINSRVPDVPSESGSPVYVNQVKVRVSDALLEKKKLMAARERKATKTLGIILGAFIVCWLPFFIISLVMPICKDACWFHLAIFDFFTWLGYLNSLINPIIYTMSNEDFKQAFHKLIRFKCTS
Kind of data set: Affinity assay, displacement of 3H-5-HT, CHO cell line. It is filed as binding. To be noted: 3H-5-HT radioligand, CHO cells. How it is done:
as §1
For orientation: Loss of bound radioactivity is the signal in a displacement assay; it reports binding, not function.

For data set [4], the target named is T4, human 5-HT2B receptor (Homo sapiens, UniProt P41595).
T4 construct: expressed in transfected cells; host or cells: CHO cells
T4 sequence (P41595 whole entry): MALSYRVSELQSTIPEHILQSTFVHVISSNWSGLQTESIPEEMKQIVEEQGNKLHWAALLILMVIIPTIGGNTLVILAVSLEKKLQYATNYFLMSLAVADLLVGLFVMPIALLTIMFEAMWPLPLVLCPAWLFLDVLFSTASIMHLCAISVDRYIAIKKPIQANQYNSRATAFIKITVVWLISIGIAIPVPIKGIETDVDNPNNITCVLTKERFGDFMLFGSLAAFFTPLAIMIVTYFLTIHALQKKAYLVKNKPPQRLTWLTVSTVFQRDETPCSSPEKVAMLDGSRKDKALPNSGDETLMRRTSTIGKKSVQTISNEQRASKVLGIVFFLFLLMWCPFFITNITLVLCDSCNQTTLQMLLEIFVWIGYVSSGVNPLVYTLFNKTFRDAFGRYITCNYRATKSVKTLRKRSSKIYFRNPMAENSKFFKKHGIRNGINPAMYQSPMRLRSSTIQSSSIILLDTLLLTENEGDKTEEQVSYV
The data set is described as above. The data set is classed as binding. To be noted: 3H-5-HT radioligand, CHO cells. Here is the method: as §1

The target of another data set is T5, human 5-HT1A receptor (Homo sapiens, UniProt P08908).
T5 construct: expressed in transfected cells; host or cells: CHO cell line
T5 sequence (P08908 1-422): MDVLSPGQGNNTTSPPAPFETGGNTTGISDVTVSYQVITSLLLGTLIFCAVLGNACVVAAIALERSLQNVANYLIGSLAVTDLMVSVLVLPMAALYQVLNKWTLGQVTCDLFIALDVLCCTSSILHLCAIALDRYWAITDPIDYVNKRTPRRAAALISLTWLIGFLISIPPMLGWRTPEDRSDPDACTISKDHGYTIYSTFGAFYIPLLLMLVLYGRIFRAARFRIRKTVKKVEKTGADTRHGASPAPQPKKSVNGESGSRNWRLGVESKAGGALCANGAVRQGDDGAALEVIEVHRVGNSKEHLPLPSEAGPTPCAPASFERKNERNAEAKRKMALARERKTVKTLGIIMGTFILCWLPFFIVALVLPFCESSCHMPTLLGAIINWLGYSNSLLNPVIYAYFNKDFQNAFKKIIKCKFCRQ
In words: Affinity assay, displacement of 3H-8-OH-DPAT, CHO cell line. It is filed as binding. As to conditions: 3H-8-OH-DPAT radioligand, CHO cells. How it is done: as §1

In data set [5] the target is T4, human 5-HT2B receptor. Kind of data set: In vitro functional assay, intracellular calcium mobilisation in CHO cells. The data set is classed as cell-based. As to conditions: for EC50: calcium mobilisation, CHO cells; for Efficacy 5-HT2B: maximum response at 1 μM relative to maximum response of 5-HT at 1 μM. How it is done: (§2) The ability of the compounds to mobilise intracellular calcium at the 5HT2A and 5-HT2B receptors was determined similarly using CHO cells expressing the human 5-HT2A or human 5-HT2B receptors.
(§3) The maximum functional responses of the compounds, at 1 μM, at the 5-HT2A, 5-HT2B and 5-HT2C receptors are expressed relative to the maximum response of 5-HT (serotonin) at a concentration of 1 μM.

For data set [6], the target named is T1, human 5-HT2A receptor. The description is as above. The data set is classed as cell-based. To be noted: for EC50: calcium mobilisation, CHO cells; for Efficacy 5-HT2A: maximum response at 1 μM relative to maximum response of 5-HT at 1 μM. Here is the method: as §2, §3

`C[C@@H]1CNCCN1c1nccnc1OCCOc1cccnc1OCCN(C)C` (as salt: acetate) [Example 1, N,N-Dimethyl-(2-(3-[2-(2-(R)-methyl-3,4,5,6-tetrahydro-2H-[1,2′]bipyrazinyl-3′-yloxy)-ethoxy]-pyridin-2-yloxy)-ethyl)-amine]: the melting point is 75 °C.
Turning to `CC(C)N(CCOc1ncccc1OCCOc1nccnc1N1CCNC[C@H]1C)C(C)C` (as salt: acetate) [Example 2, N,N-Diisopropyl-(2-(3-[2-(2-(R)-methyl-3,4,5,6-tetrahydro-2H-[1,2′]bipyrazinyl-3′-yloxy)-ethoxy]-pyridin-2-yloxy)-ethyl)-amine], the melting point was determined as 87 °C.
`C[C@@H]1CNCCN1c1nccnc1OCCOc1cccnc1OCCN(C)C` [Example 1, N,N-Dimethyl-(2-(3-[2-(2-(R)-methyl-3,4,5,6-tetrahydro-2H-[1,2′]bipyrazinyl-3′-yloxy)-ethoxy]-pyridin-2-yloxy)-ethyl)-amine]: the Ki on human 5-HT2A receptor [1] was over 1000 nM; on human 5-HT2C receptor [2] it was 12 nM; at human 5-HT1B receptor, over 1000 nM; at human 5-HT2B receptor [4] it was over 1000 nM; at human 5-HT1A receptor, 800 nM. The EC50 on human 5-HT2C receptor [3] came out at 4.2 nM; on human 5-HT2B receptor [5], 1940 nM; at human 5-HT2A receptor [6] it was 1200 nM. The “Efficacy 5-HT2C” value at human 5-HT2C receptor [3] amounted to 117%. Besides, the “Efficacy 5-HT2B” value at human 5-HT2B receptor [5] came to 16%. In addition, on human 5-HT2A receptor [6], the “Efficacy 5-HT2A” value turned out to be 14%.
Consider `CC(C)N(CCOc1ncccc1OCCOc1nccnc1N1CCNC[C@H]1C)C(C)C` [Example 2, N,N-Diisopropyl-(2-(3-[2-(2-(R)-methyl-3,4,5,6-tetrahydro-2H-[1,2′]bipyrazinyl-3′-yloxy)-ethoxy]-pyridin-2-yloxy)-ethyl)-amine], for which the Ki is over 1000 nM at human 5-HT2A receptor [1]; 10 nM on human 5-HT2C receptor [2]; 200 nM on human 5-HT1B receptor; over 1000 nM on human 5-HT2B receptor [4]; 380 nM on human 5-HT1A receptor. In addition, the EC50 at human 5-HT2C receptor [3] was found to be 3.9 nM; at human 5-HT2B receptor [5], 900 nM; at human 5-HT2A receptor [6] it was 260 nM. Also, at human 5-HT2C receptor [3], the “Efficacy 5-HT2C” value came out at 111%. The “Efficacy 5-HT2B” value on human 5-HT2B receptor [5] was found to be 33%. In addition, the “Efficacy 5-HT2A” value on human 5-HT2A receptor [6] turned out to be 40%.
